Source: publication PMC10819888, “Benzimidazole-Based Derivatives as Apoptotic Antiproliferative Agents: Design, Synthesis, Docking, and Mechanistic Studies” (Molecules, 2024)

Tests used:
NCI-H322M = assay: NCI-60 five-dose assay; assay type: cell-based, human; details: NCI-H322M, Non-Small Cell Lung Cancer
MDA-MB-435 = assay: NCI-60 five-dose assay; assay type: cell-based, human; details: MDA-MB-435, Melanoma
EGFR = EGFR (Homo sapiens, UniProt P00533); assay: EGFR inhibitory assay
SK-OV-3 = assay: NCI-60 five-dose assay; assay type: cell-based, human; details: SK-OV-3, Ovarian Cancer
A498 = assay: NCI-60 five-dose assay; assay type: cell-based, human; details: A498, Renal Cancer
NCI-H460 = assay: NCI-60 five-dose assay; assay type: cell-based, human; details: NCI-H460, Non-Small Cell Lung Cancer
COLO 205 = assay: NCI-60 five-dose assay; assay type: cell-based, human; details: COLO 205, Colon Cancer
SR = assay: NCI-60 five-dose assay; assay type: cell-based, human; details: SR, Leukemia
M14 = assay: NCI-60 five-dose assay; assay type: cell-based, human; details: M14, Melanoma
Ovarian Cancer subpanel = assay: NCI-60 five-dose assay, subpanel; assay type: cell-based, human; details: Ovarian Cancer
Leukemia subpanel = assay: NCI-60 five-dose assay, subpanel; assay type: cell-based, human; details: Leukemia
MOLT-4 = assay: NCI-60 five-dose assay; assay type: cell-based, human; details: MOLT-4, Leukemia
Melanoma subpanel = assay: NCI-60 five-dose assay, subpanel; assay type: cell-based, human; details: Melanoma
K-562 = assay: NCI-60 five-dose assay; assay type: cell-based, human; details: K-562, Leukemia
NCI-H226 = assay: NCI-60 five-dose assay; assay type: cell-based, human; details: NCI-H226, Non-Small Cell Lung Cancer
HS 578T = assay: NCI-60 five-dose assay; assay type: cell-based, human; details: HS 578T, Breast Cancer
KM12 = assay: NCI-60 five-dose assay; assay type: cell-based, human; details: KM12, Colon Cancer
UO-31 = assay: NCI-60 five-dose assay; assay type: cell-based, human; details: UO-31, Renal Cancer
HCC-2998 = assay: NCI-60 five-dose assay; assay type: cell-based, human; details: HCC-2998, Colon Cancer
NCI/ADR-RES = assay: NCI-60 five-dose assay; assay type: cell-based, human; details: NCI/ADR-RES, Ovarian Cancer
[1] = Homo sapiens, read-out: GI50 Conc. per Cell Line
[2] = Homo sapiens, read-out: LC50 (the source's name)
[3] = Homo sapiens, average sensitivity of all subpanel cell lines, read-out: GI50 Subpanel MID b

Sequence of EGFR (P00533 669-1210): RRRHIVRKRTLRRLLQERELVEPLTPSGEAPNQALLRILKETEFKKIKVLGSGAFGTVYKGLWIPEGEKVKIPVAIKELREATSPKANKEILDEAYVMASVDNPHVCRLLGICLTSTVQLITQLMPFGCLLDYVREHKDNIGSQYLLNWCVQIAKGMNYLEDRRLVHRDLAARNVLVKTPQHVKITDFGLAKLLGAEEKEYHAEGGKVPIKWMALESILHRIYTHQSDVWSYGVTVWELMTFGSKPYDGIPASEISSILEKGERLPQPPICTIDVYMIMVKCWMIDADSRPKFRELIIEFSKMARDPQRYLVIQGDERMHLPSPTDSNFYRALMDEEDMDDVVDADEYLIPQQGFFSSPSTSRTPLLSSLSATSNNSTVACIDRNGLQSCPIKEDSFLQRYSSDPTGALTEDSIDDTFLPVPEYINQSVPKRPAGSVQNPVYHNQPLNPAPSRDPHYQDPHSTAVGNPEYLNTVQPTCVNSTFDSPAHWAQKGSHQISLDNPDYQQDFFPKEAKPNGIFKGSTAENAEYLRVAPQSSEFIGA

COc1ccc(C=NNC(=O)c2ccc3[nH]c(-c4ccc(Cl)cc4)nc3c2)cc1 [Compound 4g, N′-(4-Methoxybenzylidene)-2-(4-chlorophenyl)-1H-benzimidazole-5-carbohydrazide]
GI50 (NCI-H322M; [1]): 2.49 µM
CC50 (NCI-H322M; [2]): 55.4 µM
TGI (NCI-H322M): 7.20 µM
GI50 (MDA-MB-435; [1]): 3.11 µM
CC50 (MDA-MB-435; [2]): 45.5 µM
TGI (MDA-MB-435): 9.84 µM
IC50 (EGFR): 0.27 ± 0.03 µM
GI50 (SK-OV-3; [1]): 2.3 µM
CC50 (SK-OV-3; [2]): 59.1 µM
TGI (SK-OV-3): 12.80 µM
TGI (A498): 9.87 µM
GI50 (A498; [1]): 2.45 µM
CC50 (A498; [2]): 54.6 µM
LC50 (NCI-H460; Homo sapiens): 7.05 µM
GI50 (NCI-H460; [1]): 1.83 µM
TGI (NCI-H460): 3.59 µM
TGI (COLO 205): 5.43 µM
GI50 (COLO 205; [1]): 1.94 µM
CC50 (COLO 205; [2]): 33 µM
GI50 (SR; [1]): 2.87 µM
CC50 (SR; [2]): > 100 µM
TGI (SR): 15.40 µM
GI50 (M14; [1]): 2.41 µM
CC50 (M14; [2]): 40.5 µM
TGI (M14): 7.76 µM
GI50 (Ovarian Cancer subpanel; [3]): 3.05 µM
GI50 Selectivity Ratio (MID a/MID b) (Ovarian Cancer subpanel): 0.83
GI50 (Leukemia subpanel; [3]): 2.88 µM
GI50 Selectivity Ratio (MID a/MID b) (Leukemia subpanel): 0.87
GI50 (MOLT-4; [1]): 4.53 µM
CC50 (MOLT-4; [2]): > 100 µM
TGI (MOLT-4): 30.40 µM
GI50 (Melanoma subpanel; [3]): 2.43 µM
GI50 Selectivity Ratio (MID a/MID b) (Melanoma subpanel): 1.04
GI50 (K-562; Homo sapiens, K562, read-out: GI50 Conc. per Cell Line): 2.69 µM
CC50 (K-562; Homo sapiens, K562, read-out: LC50 (the source's name)): > 100 µM
TGI (K-562): 11.20 µM
GI50 (NCI-H226; [1]): 1.79 µM
CC50 (NCI-H226; [2]): 13.5 µM
TGI (NCI-H226): 4.43 µM
TGI (HS 578T): 5.64 µM
GI50 (HS 578T; [1]): 2.3 µM
CC50 (HS 578T; [2]): > 100 µM
GI50 (KM12; [1]): 3.03 µM
CC50 (KM12; [2]): > 100 µM
TGI (KM12): 9.58 µM
GI50 (UO-31; [1]): 1.86 µM
CC50 (UO-31; [2]): 25.7 µM
TGI (UO-31): 6.38 µM
TGI (HCC-2998): 6.44 µM
GI50 (HCC-2998; [1]): 2.57 µM
CC50 (HCC-2998; [2]): 37.8 µM
GI50 (NCI/ADR-RES; [1]): 7.81 µM
CC50 (NCI/ADR-RES; [2]): > 100 µM
TGI (NCI/ADR-RES): >100 µM
